Reference: patent US20080214506A1, “Novel use of ion channel active compound, meperidine, to mediate process of accelerated wound healing” (priority 2002, published 2008)

Test system: surgical wound
Test: meperidine subcutaneous infiltration as local anesthetic in exodontia and oral surgery, clinical observation over five years
Conditions: for blood loss per case: used as the local anesthetic
Excerpt: Normal healing after surgical and third molar procedures can result in painful sequelae up to 14 days after surgery, which frequently require after-hour intervention by the surgeon. Among these sequelae are localized osteotitis (dry socket), trismus, facial edema, and protracted bleeding. For the purposes of this invention, the definition of “healed extraction site” will be a surgical wound that presents as normal clinical dental ridge architecture with pink gingival tissue and without classic granulation tissue, erythema, or edema.
For subcutaneous injection buccal or labial to extraction sites, meperidine is delivered in a standard insulin syringe pre-loaded with 40 mg meperidine in preservative-free solution (available as 1 cc (100 mg) ampules or 1 cc (100 mg) multidose vials). […] Consequently, early on, the use of meperidine for oral surgery was standardized as preservative-free and limited to low doses of 5-20 mg per extraction site with a maximum of 120 mg for any one individual. […] The surgical procedure also involves the concurrent use of intravenous barbituates (hexibarbitol), 0.2 mg atropine, 2 mg dexarnethasone, and concurrent use of 100% oxygen. Nitrous oxide, 20-40%, may be used intermittently during the case to assist the phobic dental patient through the procedure. Additionally each patient is encouraged to take orally 2000 units of vitamin C (adult dose) the day before surgery and 2000 units per day for 5 days postoperatively. […] (A thiophene local anesthetic has been used on rare occasions.)
The infiltration process usually includes 5-15 mg in the dental sulcus with 2-3 mg infused in the attached gingiva. No periodontal ligament or intraosseous injection of meperidine is used.

[1] = healed extraction site, injection during surgery, five year period

Compound: Nc1ccccc1 [aminobenzene]
- blood loss per case (four impacted third molars): 70-150 cc

Compound: CCOC(=O)C1(c2ccccc2)CCN(C)CC1 [meperidine]
- cases presenting with pink surgical site tissue including the mucoperiostial flap (3-4 days post surgery): 60-80%
- post-operative bleeding or wound management problems (10 months, April 2001 through February 2002, prophylactic antibiotics not always used): No post-operative bleeding or wound management problems developed
- patients healed before day 5 postoperatively (before the dry socket can occur): 80%
- time after injection at which rapid clotting is seen (during surgery): three
- time for extraction socket to form a complete clot with no further bleeding (during surgery): 2 to 5 min
- blood loss per case, rarely went over (four impacted third molars): ≤ 20 cc
- blood loss per case (four impacted third molars): 2-10 cc
- patients in whom healing occurred in 3-4 days [1]: 80%
- patients in whom healing occurred in 5-10 days [1]: 5%
- patients in whom healing occurred in 1 day [1]: 15%
- intraoperatively cardiac monitored arrythmias (human, in vivo): disappeared
- laryngiospasms requiring muscle paralyzing agents (human, in vivo): not experienced
- paresthesia (human, in vivo): can occur
- clinical numbness (immediate postoperative, infiltration): without any marked clinical numbness
- post-operative infections (in 5 years): no post-operative infections
- trismus or temeromandibular joint dysfunction requiring physical therapy (in 5 years): no cases
- relief of oral surgical pain from extractions (infiltrated subcutaneously buccal or labial to extraction site): clinically relieve oral surgical pain
- dry sockets (over 5 years): disappeared from the practice
- time after suturing until clotting satisfactory for discharge (patient with a factor deficiency disease): 15 min
- tissue reaction observed clinically (solution containing a preservative, subcutaneous injection at extraction sites): excessive facial edema and tissue necrosis
- nausea (total body dose under 120 mg): rare
